Values quoted from earlier work as cited in patent US4847261A, “Alkoxy cycloalkanol esters of dihydrolysergic acid having peripheral serotonin antagonists properties” (Eli Lilly and Company, priority 1988, dated 1989).

Legend:
[1] = system: 5HT2 receptors; details: in words; cited from earlier work
[2] = system: 5HT2 receptors; details: in words; mediated by 5HT2 receptors; cited from earlier work

CC(O)C(C)OC(=O)[C@@H]1C[C@@H]2c3cccc4c3c(cn4C(C)C)C[C@H]2N(C)C1 (stereo partly drawn) [LY53857, 1-isopropyl-6-methyl-8β-(1-methyl-2-hydroxy)propoxycarbonyl-5R-ergoline]
peripheral serotonin antagonist activity among Garbrecht compounds [1]: most active peripheral serotonin antagonist
antagonism of vascular contraction to serotonin [2]: potent antagonist
